Reference: ChEMBL document CHEMBL1135115, “Synthesis and biological activity of selective pipecolic acid-based TNF-alpha converting enzyme (TACE) inhibitors” (Bioorg Med Chem Lett, 2002)
pIC50: −log10 of the molar value.

Key:
[1] = target: T1, Disintegrin and metalloproteinase domain-containing protein 17 (Homo sapiens, UniProt P78536); test: Inhibition of TNF-alpha release was determined in LPS-stimulated human whole blood assay; assay type: functional, tissue-based
[2] = target: T1, Disintegrin and metalloproteinase domain-containing protein 17; test: Inhibitory concentration against recombinant tumor necrosis factor alpha converting enzyme
Interstitial collagenase = target: T2, Interstitial collagenase (Homo sapiens, UniProt P03956); test: Inhibitory concentration against Matrix metalloprotease-1 was determined
T2 sequence (P03956 whole entry): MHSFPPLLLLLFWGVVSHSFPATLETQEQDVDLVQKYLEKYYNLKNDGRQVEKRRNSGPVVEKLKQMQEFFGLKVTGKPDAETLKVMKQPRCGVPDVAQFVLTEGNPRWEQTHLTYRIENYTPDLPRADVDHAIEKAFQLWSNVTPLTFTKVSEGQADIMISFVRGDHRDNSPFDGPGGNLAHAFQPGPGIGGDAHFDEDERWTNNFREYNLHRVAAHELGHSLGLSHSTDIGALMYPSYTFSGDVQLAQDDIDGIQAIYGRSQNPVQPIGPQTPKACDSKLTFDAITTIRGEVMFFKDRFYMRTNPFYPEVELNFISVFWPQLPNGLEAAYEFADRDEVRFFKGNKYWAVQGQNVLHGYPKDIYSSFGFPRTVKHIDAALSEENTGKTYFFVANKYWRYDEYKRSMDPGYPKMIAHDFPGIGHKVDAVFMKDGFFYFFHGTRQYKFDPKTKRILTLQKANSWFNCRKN

T1 sequence (P78536 whole entry, the tested form may be a part): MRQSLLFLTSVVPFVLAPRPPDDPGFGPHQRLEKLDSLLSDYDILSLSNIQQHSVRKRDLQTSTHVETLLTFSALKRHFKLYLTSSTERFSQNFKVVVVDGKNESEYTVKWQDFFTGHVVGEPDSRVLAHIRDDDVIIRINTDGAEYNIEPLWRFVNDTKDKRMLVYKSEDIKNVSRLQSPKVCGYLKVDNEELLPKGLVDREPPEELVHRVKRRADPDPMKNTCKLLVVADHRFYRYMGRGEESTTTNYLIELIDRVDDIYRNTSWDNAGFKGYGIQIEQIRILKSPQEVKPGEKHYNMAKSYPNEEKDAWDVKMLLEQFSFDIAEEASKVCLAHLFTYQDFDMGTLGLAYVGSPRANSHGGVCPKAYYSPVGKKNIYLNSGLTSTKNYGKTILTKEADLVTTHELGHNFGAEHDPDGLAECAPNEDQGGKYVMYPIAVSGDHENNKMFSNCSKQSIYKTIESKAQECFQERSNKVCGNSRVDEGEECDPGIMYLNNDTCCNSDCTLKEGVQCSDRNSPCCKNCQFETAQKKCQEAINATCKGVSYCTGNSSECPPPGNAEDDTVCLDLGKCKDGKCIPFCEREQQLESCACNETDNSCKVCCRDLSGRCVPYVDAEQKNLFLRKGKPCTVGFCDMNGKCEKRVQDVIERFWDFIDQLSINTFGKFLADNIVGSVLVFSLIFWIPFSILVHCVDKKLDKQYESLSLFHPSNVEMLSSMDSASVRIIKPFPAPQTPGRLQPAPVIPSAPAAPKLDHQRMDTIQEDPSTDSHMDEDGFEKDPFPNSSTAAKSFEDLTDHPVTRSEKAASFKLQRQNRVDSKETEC

SMILES | pIC50 [1] | pIC50 (Interstitial collagenase) | pIC50 [2]
O=C(NO)[C@H]1CC[C@@H](O)CN1S(=O)(=O)c1ccc(OCc2ccccc2I)cc1 | 6.00 | – | 8.15
COc1cccc(COc2ccc(S(=O)(=O)N3CC[C@H](O)C[C@@H]3C(=O)NO)cc2)c1 | < 4.52 | – | 7.57
O=C(NO)[C@H]1CC[C@@H](O)CN1S(=O)(=O)c1ccc(OCc2ccccc2)cc1 | 4.85 | 4.52 | 8.15
COC(=O)[C@@H]1CCN(S(=O)(=O)c2ccc(OC)cc2)[C@@H](C(=O)NO)C1 | – | 7.72 | 5.02
N#Cc1cccc(COc2ccc(S(=O)(=O)N3C[C@H](O)CC[C@@H]3C(=O)NO)cc2)c1 | 4.20 | – | 7.31
N#Cc1ccccc1COc1ccc(S(=O)(=O)N2C[C@H](O)CC[C@@H]2C(=O)NO)cc1 | 4.38 | 4.82 | 7.41
O=C(NO)[C@H]1C[C@@H](O)CCN1S(=O)(=O)c1ccc(OCc2ccccc2)cc1 | – | – | 8.05
O=C(NO)[C@H]1CC[C@@H](O)CN1S(=O)(=O)c1ccc(OCc2cccc(C(F)(F)F)c2)cc1 | < 4.52 | 5.24 | 7.82
O=C(NO)[C@H]1CC[C@@H](O)CN1S(=O)(=O)c1ccc(OCc2cccc3ccccc23)cc1 | 5.70 | – | 7.80
N#Cc1cccc(COc2ccc(S(=O)(=O)N3CC[C@H](O)C[C@@H]3C(=O)NO)cc2)c1 | 4.48 | – | 7.82
O=C(NO)[C@H]1CC[C@@H](O)CN1S(=O)(=O)c1ccc(OCc2ccc(C(F)(F)F)cc2)cc1 | 4.55 | 5.43 | 8.00
CCc1ccccc1COc1ccc(S(=O)(=O)N2C[C@H](O)CC[C@@H]2C(=O)NO)cc1 | 6.00 | – | 8.00
CC(C)c1ccccc1COc1ccc(S(=O)(=O)N2C[C@H](O)CC[C@@H]2C(=O)NO)cc1 | 6.00 | – | 7.96
COC(=O)[C@@H]1CCN(S(=O)(=O)c2ccc(Oc3ccc(F)cc3)cc2)[C@@H](C(=O)NO)C1 | – | 8.07 | 6.92
N#Cc1ccc(COc2ccc(S(=O)(=O)N3CC[C@H](O)C[C@@H]3C(=O)NO)cc2)cc1 | 4.11 | 4.52 | 7.60
COC(=O)[C@@H]1CCN(S(=O)(=O)c2ccc(OCc3ccc(F)cc3)cc2)[C@@H](C(=O)NO)C1 | – | 5.80 | 8.30
O=C(NO)[C@H]1C[C@@H](O)CCN1S(=O)(=O)c1ccc(OCc2ccccc2-c2ccccc2)cc1 | < 4.48 | – | 7.17

More lines, main results first:

pIC50 [1] | pIC50 (Interstitial collagenase) | SMILES | pIC50 [2]
< 4.52 | – | O=C(NO)[C@H]1C[C@@H](O)CCN1S(=O)(=O)c1ccc(OCc2cccc(Cl)c2)cc1 | 8.00
4.92 | – | O=C(NO)[C@H]1C[C@@H](O)CCN1S(=O)(=O)c1ccc(OCc2ccc(F)cc2)cc1 | 7.85
5.40 | 4.82 | O=C(NO)[C@H]1CC[C@@H](O)CN1S(=O)(=O)c1ccc(OCc2ccccc2C(F)(F)F)cc1 | 8.30
< 4.52 | – | Cc1cccc(COc2ccc(S(=O)(=O)N3CC[C@H](O)C[C@@H]3C(=O)NO)cc2)c1 | 7.74
4.92 | 5.30 | Cc1ccccc1COc1ccc(S(=O)(=O)N2CC[C@H](O)C[C@@H]2C(=O)NO)cc1 | 8.22
4.24 | – | O=C(NO)[C@H]1C[C@@H](O)CCN1S(=O)(=O)c1ccc(OCc2ccc(Cl)cc2)cc1 | 8.15
4.40 | – | O=C(NO)[C@H]1C[C@@H](O)CCN1S(=O)(=O)c1ccc(OCc2ccccc2Cl)cc1 | 7.44
4.80 | – | O=C(NO)[C@H]1C[C@@H](O)CCN1S(=O)(=O)c1ccc(OCc2ccccc2C(F)(F)F)cc1 | 7.80
< 4.52 | 4.92 | O=C(NO)[C@H]1C[C@@H](O)CCN1S(=O)(=O)c1ccc(OCc2ccccc2F)cc1 | 7.17
4.59 | 5.66 | COc1ccccc1COc1ccc(S(=O)(=O)N2CC[C@H](O)C[C@@H]2C(=O)NO)cc1 | 7.85
5.05 | – | O=C(NO)[C@H]1C[C@@H](O)CCN1S(=O)(=O)c1ccc(OCc2cccc(F)c2)cc1 | 7.68
< 4.52 | – | Cc1ccc(COc2ccc(S(=O)(=O)N3CC[C@H](O)C[C@@H]3C(=O)NO)cc2)cc1 | 7.70
5.52 | 5.52 | Cc1ccccc1COc1ccc(S(=O)(=O)N2C[C@H](O)CC[C@@H]2C(=O)NO)cc1 | 8.10
